# Measured values as given in US11523998B2, “Anti-inflammatory formulations and uses thereof including a combination of palmitoylethanolamide and plant-based polyphenols” (The Texas A&M University System, priority 2018, dated 2022).
# Legend:
# [1] = test system: interleukin-1 beta (II-1β); assay: Il-1β mRNA expression (RT-qPCR) in LPS-activated RAW 264.7 macrophages; assay type: cell-based, murine; settings: for reduction of IL-1β mRNA expression: 1.0 mg/L alone; for reduction of IL-1β mRNA expression, alone at same molarity: around 3.4 μM (1.0 mg/L quercetin, 0.974 mg/L luteolin)
# Procedure: RAW 264.7 murine macrophage cell line was purchased from American Type Culture Collection (ATCC-TIB71). Cells were cultured in high glucose Dulbecco's Modified Eagle Medium (DMEM) supplemented with stable glutamine (0.0584%) and sodium pyruvate (0.011%), 10% (v/v) heat-inactivated fetal bovine serum, and 1% (v/v) penicillin/streptomycin mix. Cells were maintained in an incubator at 37° C. with 5% CO2, and the medium was changed every two days. All assays were conducted in cells between the 3rd and the 15th passage. All treatments with PEA and other polyphenols were solubilized in dimethyl sulfoxide (DMSO) and further diluted in complete culture media immediately before use. LPS (10 ng mL-1) was used to induce inflammation in RAW 264.7 cultures.
# Murine RAW 264.7 macrophage cells (1×10^5 cells per well) were seeded in 12-well plates and incubated for 24 hours. Cells were pre-treated with Palmitoylethanolamide (PEA) and other compounds of interest for 1 hour and then lipopolysaccharide (LPS), a major activating agent of macrophages, was added for a final concentration of 10 ng·mL-1. Cells were then incubated for 8 hours. Negative control (culture media only) and positive (LPS) controls, as well as a Vehicle (DMSO at a maximal concentration of 0.2%)+LPS were also performed. Total RNA was extracted and purified using an RNeasy mini kit (QIAGEN, Venlo, Netherlands) according to the manufacturer's protocol. mRNA quality and quantification were assessed with NanoDrop® ND-1000 (NanoDrop Technologies, Wilmington, Del., USA). cDNA synthesis was performed with the iScript Reverse Transcription Supermix (Bio-Rad Laboratories, Hercules, Calif., USA) according to the manufacturer's protocol. RT-qPCR reactions were performed using iTaq Universal Probes Supermix (Bio-Rad Laboratories, Hercules, Calif., USA). mRNA expression cyclooxygenase-2 (Cox-2) and interleukin-1 beta (II-1β) were analyzed using beta-actin (Actb) as a reference gene. The levels of transcripts were calculated relative to the control group by the 2-ΔΔCt method.
# (§1) All data were analyzed by one-way analysis of variance (ANOVA) with Dunnet's or Sidak's posttest using GraphPad Prism 6.0 (GraphPad Software, La Jolla, Calif., USA).
# [2] = test system: cyclooxygenase-2 (Cox-2); assay: Cox-2 mRNA expression (RT-qPCR) in LPS-activated RAW 264.7 macrophages; assay type: cell-based, murine; settings: LPS 10 ng/mL; for downregulation of Cox-2 mRNA expression, compound alone: 9 h
# Procedure: Cells were maintained in an incubator at 37° C. with 5% CO2, and the medium was changed every two days. All assays were conducted in cells between the 3rd and the 15th passage. All treatments with PEA and other polyphenols were solubilized in dimethyl sulfoxide (DMSO) and further diluted in complete culture media immediately before use.
# Cells were pre-treated with Palmitoylethanolamide (PEA) and other compounds of interest for 1 hour and then lipopolysaccharide (LPS), a major activating agent of macrophages, was added for a final concentration of 10 ng·mL-1. Cells were then incubated for 8 hours. Negative control (culture media only) and positive (LPS) controls, as well as a Vehicle (DMSO at a maximal concentration of 0.2%)+LPS were also performed. Total RNA was extracted and purified using an RNeasy mini kit (QIAGEN, Venlo, Netherlands) according to the manufacturer's protocol. mRNA quality and quantification were assessed with NanoDrop® ND-1000 (NanoDrop Technologies, Wilmington, Del., USA). cDNA synthesis was performed with the iScript Reverse Transcription Supermix (Bio-Rad Laboratories, Hercules, Calif., USA) according to the manufacturer's protocol. RT-qPCR reactions were performed using iTaq Universal Probes Supermix (Bio-Rad Laboratories, Hercules, Calif., USA). mRNA expression cyclooxygenase-2 (Cox-2) and interleukin-1 beta (II-1β) were analyzed using beta-actin (Actb) as a reference gene. The levels of transcripts were calculated relative to the control group by the 2-ΔΔCt method.
# as §1
structure (smiles),measurement,setting,value
"CCCCCCCCCCCCCCCC(=O)NCCO [PEA, N-(2-Hydroxyethyl)hexadecanamide]",reduction of II-1β expression,"[1]; 0.5 mg/L alone, LPS 10 ng/mL",28%
same,expression of the inflammatory cytokine II-1β,"[1]; PEA 2.0 mg/L, after 1.0-10 ng/mL LPS",significantly decrease
same,lowest effective concentration of compound alone (II-1β expression),"[1]; LPS 10 ng/mL, 9 h",0.5 mg/L
same,expression of Cox-2,[2]; PEA 2.0 mg/L,significantly decrease
COc1cc(CNC(=O)CCCC/C=C/C(C)C)ccc1O [capsaicin],"expression of IL-1β, compound alone (screening)","[1]; alone, LPS 10 ng/mL, 9 h",significant reduction
same,"expression of IL-1β, in combination with PEA (screening)","[1]; in combination with PEA, LPS 10 ng/mL, 9 h",significant reduction
COc1cc(/C=C/C(=O)CC(=O)/C=C/c2ccc(O)c(OC)c2)ccc1O [curcumin],reduction of IL-1β mRNA expression,[1]; LPS 10 ng/mL,~57%
same,lowest effective concentration of compound alone (II-1β expression),"[1]; LPS 10 ng/mL, 9 h",1.0 mg/L
CC(C)Cc1ccc(C(C)C(=O)O)cc1 (centres unmarked) [ibuprofen],"inflammatory state of the cells (II-1β and Cox-2 expression, screening)","[1]; tested concentration, LPS 10 ng/mL, 9 h",did not improve the inflammatory state of the cells
O=c1cc(-c2ccc(O)c(O)c2)oc2cc(O)cc(O)c12 [luteolin],"reduction of IL-1β mRNA expression, alone at same molarity","[1]; alone, 9 h",50%
O=c1c(O)c(-c2ccc(O)c(O)c2)oc2cc(O)cc(O)c12 [quercetin],reduction of IL-1β mRNA expression,[1]; LPS 10 ng/mL,around 45%
same,"reduction of IL-1β mRNA expression, alone at same molarity","[1]; alone, 9 h",78%
same,lowest effective concentration of compound alone (II-1β expression),"[1]; LPS 10 ng/mL, 9 h",1.0 mg/L
Oc1ccc(C=Cc2cc(O)cc(O)c2)cc1 [resveratrol],"downregulation of II-1β mRNA expression, compound alone","[1]; alone, LPS 10 ng/mL, 9 h",did not reduce
same,"downregulation of II-1β mRNA expression, compound alone","[1]; alone, LPS 10 ng/mL, 9 h, listed as Resveratrol",no downregulation
same,"downregulation of Cox-2 mRNA expression, compound alone",[2],did not reduce
same,"downregulation of Cox-2 mRNA expression, compound alone",[2]; listed as Resveratrol,no downregulation
